SMILES | melting point [°C]
N#Cc1ccc2c(CCC3CCN(Cc4ccccc4)CC3)noc2c1 | 113 to 114
O=C(Cc1cn(-c2ccccc2)nc1-c1ccc(Cl)cc1)NO | 168 to 169
N#CC=C1CCN(c2ccc(N3C[C@H](CNC(=O)CO)OC3=O)cc2F)CC1 | 68 to 70
CC1(C)Oc2ccc(C#N)cc2[C@@H](NC=O)[C@@H]1OC=O (relative stereo) | 171 to 172
O=C(O)c1ccccc1-c1cc(-c2ccccc2)on1 | 144 to 146
CCOC(=O)[C@@H]1CN(CC2=Cc3ccc(OC)cc32)CC[C@H]1O (relative stereo) | 156 to 160
CCCCN1CCC(O)(c2cccc(C(F)(F)F)c2F)CC1 | 138
O=C(CBr)c1csc(-c2ccc([N+](=O)[O-])cc2)n1 | 186 to 187
CC(C#CC1CCC(Oc2ccc(F)cc2)C1)N(O)C(N)=O (stereo unspecified) | 95.6 to 96.7
CCOC(=O)c1sc2[nH]c(=O)c(=O)[nH]c2c1C | > 300
N=C1SCCN1c1ccccc1[N+](=O)[O-] | 127
CC1(CN2CCC(S(=O)c3ccc(OC(F)(F)F)cc3)CC2)Cn2cc([N+](=O)[O-])nc2O1 (stereo unspecified) | 107 to 109
CC1=C(C)C2=NC(C)(C(C)C)C(=O)N2C1=O (stereo unspecified) | 98 to 99
O=C(NCC12CC3CC(CC(C3)C1)C2)c1ccccc1C(c1ccc(O)cc1)c1ccc(O)cc1 | 149 to 151
O=C(c1ccoc1)N1CCC(O)(C#Cc2cccc(Cl)c2)CC1 | 93 to 94
C=C(CS(=O)(=O)c1ccc(C)cc1)c1ccccc1 | 103
Cc1cccc2c(C(F)(F)F)c(O)ccc12 | 83 to 84
CCOC(=O)C1Cc2cc3c(CC)noc3c(Cl)c2O1 (stereo unspecified) | 95 to 96
CCCCCCC(C)(C)c1ccc(C2=CCCN(CC3CC3)C2)c(O)c1 | 118
O=c1c(-c2ccccc2)c(-c2ccccc2)oc2cc(OCC3CO3)ccc12 (stereo unspecified) | 143 to 145
O=C1CCC(c2cc(F)c(F)c(F)c2)CC1 | 124
CN(Cc1ccc(F)cc1)C1CCN(c2ccc(C#N)cc2)CC1 | 100 to 101

SMILES | melting point [°C]
O=C(CCCCl)Nc1nnc(-c2ccccc2)s1 | 159 to 162
O=C(O)CC(=O)Nc1ccccc1C(=O)O | 171 to 173
Cn1nc2c([N+](=O)[O-])cc3nc(O)c(O)nc3c2n1 | > 300
CN(C)CCc1c[nH]c2ccc(C#CCOCc3ccccc3)cc12 | 93 to 95
CS(=O)(=O)N1CCN(c2ccc3c(c2)N2CCN=C2C(c2ccccc2)=[N+]3[O-])CC1 | 252 to 253
COC(=O)c1cscc1OC(C)=O | 56 to 58
COCCc1nc2c(N)nc3ccccc3c2n1CCCNS(=O)(=O)c1ccccc1 | 149 to 151
[O-][N+]1=C(c2ccccc2F)c2cc(Cl)ccc2-n2cnc(N3CCOCC3)c2C1 | 200 to 203
Cn1cnnc1C(O)(c1ccc(Cl)cc1)c1ccc2[nH]c(=O)cc(-c3cccc(Cl)c3)c2c1 (stereo unspecified) | > 260
CC(C(=O)O)c1ccc([N+](=O)[O-])c(CC(=O)O)c1 (stereo unspecified) | 169 to 171
CN(C(=N)Nc1cccc2ccccc12)c1cccc2ccccc12 | 249 to 250
COC(=O)CCCCCCc1nc(C)sc1C(=O)O | 106 to 107
Clc1cc2c(cc1Cl)C(Cl)Cc1ccccc1S2 (stereo unspecified) | 130 to 131
Cc1cc(-n2ccnc2)c2cccc(OCc3c(Cl)ccc(S(=O)(=O)N4CCC[C@H]4C(=O)N4CCN(Cc5cccnc5)CC4)c3Cl)c2n1 | 102
NS(=O)(=O)c1ccc(-c2nc(-c3ncn4c(C(F)(F)F)cc(-c5ccc(C(F)(F)F)cc5)nc34)no2)cc1 | 303
Cc1cc(Cl)ccc1N=CN(C)SN(C)c1ccccc1 | 65 to 67
CCCCCS(=O)(=O)NC(=O)/C=C/c1ccc(OCCOC)cc1Cc1ncc(Br)s1 | 88.5 to 89.1
COc1cc(NS(=O)(=O)CC(=O)c2ccccc2)c2c(c1)OC(C)C2 (stereo unspecified) | 143 to 145
c1cn(-c2nc(N3CCOCC3)nc(-n3ccnc3)n2)cn1 | 268 to 270
COc1cc(C(=S)N2CCNCC2)cc(OC)c1OC | 116 to 118
O=C(O)/C=C/c1ccc(N2CCCC2)nc1 | 170

Results, then the compound that gave them:

melting point [°C] | SMILES
148 | Cc1c(C(=O)NN2CCCCC2)nn(-c2ccc(Cl)cc2Cl)c1-c1ccc(Cl)cc1
97 to 100 | CCc1c(-c2ccc(OC)cc2)c2c(CO)cc3cccc1n32
212 to 215 | Cc1cccc(C)c1NC(=O)c1ccc(N)cc1
163 to 166 | CN(Cc1sc2c(=O)c(C(=O)NCc3ccc(Cl)cc3)cn(C)c2c1COCC[Si](C)(C)C)CC(O)c1ccc2ccccc2n1 (stereo unspecified)
149 to 150 | CC=Cc1c(-c2ccc(S(C)(=O)=O)cc2)cnn(-c2ccc(F)c(F)c2)c1=O
214 to 215 | CCc1cccc(CC)c1NC(=O)Nc1oc2ccc(C)cc2c1-c1ccccc1Cl
129 to 136 | Cc1cccc(C2=C(c3ccc(F)c(-c4cn[nH]c4)c3)NN(C(C)C)C2)n1
89 to 97 | CC1(C)CN2C(N)=NC(c3ccc(OC(F)(F)F)cc3)(c3cccc(-c4cccnc4F)c3)C2=N1 (stereo unspecified)
93 to 97 | Cc1ccc(C)c(C2C(=O)Oc3c2cc(C(C)(C)C)cc3C(C)(C)C)c1 (stereo unspecified)
200 | CCn1cc(-c2ccc(F)c(C)c2)nc1COCc1ccccc1
176 to 178 | COCCNc1nc2c(N)nc3ccccc3c2n1CC(C)(C)O
199 to 216 | CC(C)c1ccc(S(=O)(=O)n2c(Cc3ccc(C(=O)O)s3)cc3cc(C(F)(F)F)ccc32)cc1
102 to 106 | CCCC(=O)C1=C(O)CC(c2ccc(OC)c(NC(C)=O)c2)CC1=O (stereo unspecified)
97 to 98 | CN(C)c1ccc(/C=C/c2c(F)cccc2F)c(N)c1
165 to 166 | Nc1ccc2ccc(-c3cccc(Br)c3)nc2n1
200 to 203 | CN1CC(C(=O)c2oc(C3CCS(=O)(=O)CC3)cc2Cc2ccc(F)cc2)=C(O)C1=O
133 | CCC(O)(CC)c1cc(C)c(-c2cccc(OCc3ccc(CO)c(CO)c3)c2)c(C)c1
192 to 193 | Cc1ccn(-c2ccc(C(=O)O)c(Cl)c2)n1
210 to 211 | COc1ccc(C2=NN(C3CCN(C(=O)CN4C(=O)COCC4=O)CC3)C(=O)C(C)(C)C2)cc1OC
190 to 191 | Cc1cc2c(c3ccc(=O)[nH]c13)OC(CNC(=O)CN(C)C(=O)OC(C)(C)C)C2 (stereo unspecified)
172 | COc1ccc2ccc(NC(=O)c3cccc(OC(C)=O)c3)nc2n1
245 to 247 | O=C(O)Cc1ccc2c(c1)C(=O)c1ccc(Cl)cc1CS2
195 to 201 | CSc1ncc2cc(Oc3ccc(F)cc3F)c(NC(=O)NC(C)(C)C)nc2n1
64 to 66 | COc1cc(Oc2cccc(OC(F)(F)F)c2)nc(C(=O)O)c1
150 to 152 | CCCCc1ncc(/C=C(\Cc2cccs2)C(=O)O)n1Cc1ccc(O)c(C)c1
> 400 | O=c1[nH][nH]c(=O)c2c(O)c3ccccc3nc12
283 to 291 | O=C(O)c1cn(-c2ccc(F)cc2)c2c(F)c(N3Cc4cccc(Cl)c4C3)c(F)cc2c1=O
148 to 150 | CC(=O)NCc1ccc(CN2CCN(c3ccc(F)cc3NC(C)=O)CC2)cc1
